Converted amounts (≈) assume the structure as drawn. The source made the active and inactive calls. The rule behind the calls is not given here.
Key:
Staphylococcus [1] = test: Antimicrobial activity against Staphylococcus citreus by agar dilution method; type: functional
Staphylococcus aureus [2] = test: Antimicrobial activity against Staphylococcus aureus by agar dilution method; type: functional
Aeromonas hydrophila [3] = test: Antimicrobial activity against Aeromonas hydrophila by agar dilution method; type: functional
Escherichia coli [4] = test: Antimicrobial activity against Escherichia coli by agar dilution method; type: functional
Rattus norvegicus [5] = test: Anti-inflammatory activity in Wistar rat assessed as inhibition of carrageenan-induced paw oedema at 50 mg/kg, po dosed 30 mins before carrageenan challenge and measured 30 mins post carrageenan challenge; type: functional
Rattus norvegicus [6] = test: Anti-inflammatory activity in Wistar rat assessed as inhibition of carrageenan-induced paw oedema at 50 mg/kg, po dosed 30 mins before carrageenan challenge and measured 60 mins post carrageenan challenge; type: functional
Rattus norvegicus [7] = test: Anti-inflammatory activity in Wistar rat assessed as inhibition of carrageenan-induced paw oedema at 50 mg/kg, po dosed 30 mins before carrageenan challenge and measured 120 mins post carrageenan challenge; type: functional
Rattus norvegicus [8] = test: Analgesic activity in Wistar rat assessed as tail flick latency time at 50 mg/kg, po measured 0 mins post dose by tail flick method (reference value: 3.5 +/- 0.8 secs); type: functional
Rattus norvegicus [9] = test: Analgesic activity in Wistar rat assessed as tail flick latency time at 50 mg/kg, po measured 30 mins post dose by tail flick method (reference value: 3.46 +/- 0.1 secs); type: functional
Rattus norvegicus [10] = test: Analgesic activity in Wistar rat assessed as tail flick latency time at 50 mg/kg, po measured 60 mins post dose by tail flick method (reference value: 3.47 +/- 0.1 secs); type: functional
Rattus norvegicus [11] = test: Analgesic activity in Wistar rat assessed as tail flick latency time at 50 mg/kg, po measured 90 mins post dose by tail flick method (reference value: 3.7 +/- 0.1 secs); type: functional
Mus musculus [12] = test: Acute toxicity in Swiss mouse assessed as induction of diarrhoea incidence at 100 to 1000 mg/kg, po measured 48 hrs post dose; type: organism-based; conditions: in vivo
Mus musculus [13] = test: Acute toxicity in Swiss mouse assessed as induction of depression incidence at 100 to 1000 mg/kg, po measured 48 hrs post dose; type: organism-based; conditions: in vivo
[14] = Acute toxicity in Swiss mouse at 100 to 1000 mg/kg, po measured 48 hrs post dose; type: organism-based; conditions: in vivo
Staphylococcus [15] = test: Antimicrobial activity against Staphylococcus citreus at 20 uL of 1 mg/ml by disc diffusion assay; type: functional; conditions: for zone of inhibition at 1000 µg/mL: read-out: IZ
Staphylococcus aureus [16] = test: Antimicrobial activity against Staphylococcus aureus at 20 uL of 1 mg/ml by disc diffusion assay; type: functional; conditions: read-out: IZ
Aeromonas hydrophila [17] = test: Antimicrobial activity against Aeromonas hydrophila at 20 uL of 1 mg/ml by disc diffusion assay; type: functional; conditions: for zone of inhibition at 1000 µg/mL: read-out: IZ
Escherichia coli [18] = test: Antimicrobial activity against Escherichia coli at 20 uL of 1 mg/ml by disc diffusion assay; type: functional; conditions: for zone of inhibition at 1000 µg/mL: read-out: IZ
Rattus norvegicus [19] = test: Analgesic activity in Wistar rat assessed as tail flick latency time at 20 mg/kg, po measured 0 mins post dose by tail flick method (reference value: 3.5 +/- 0.8 secs); type: functional
Rattus norvegicus [20] = test: Analgesic activity in Wistar rat assessed as tail flick latency time at 20 mg/kg, po measured 30 mins post dose by tail flick method (reference value: 3.46 +/- 0.1 secs); type: functional
Rattus norvegicus [21] = test: Analgesic activity in Wistar rat assessed as tail flick latency time at 20 mg/kg, po measured 60 mins post dose by tail flick method (reference value: 3.47 +/- 0.1 secs); type: functional
Rattus norvegicus [22] = test: Analgesic activity in Wistar rat assessed as tail flick latency time at 20 mg/kg, po measured 90 mins post dose by tail flick method (reference value: 3.7 +/- 0.1 secs); type: functional
Rattus norvegicus [23] = test: Anti-inflammatory activity in Wistar rat assessed as inhibition of carrageenan-induced paw oedema at 20 mg/kg, po dosed 30 mins before carrageenan challenge and measured 30 mins post carrageenan challenge; type: functional
Rattus norvegicus [24] = test: Anti-inflammatory activity in Wistar rat assessed as inhibition of carrageenan-induced paw oedema at 20 mg/kg, po dosed 30 mins before carrageenan challenge and measured 60 mins post carrageenan challenge; type: functional
Rattus norvegicus [25] = test: Anti-inflammatory activity in Wistar rat assessed as inhibition of carrageenan-induced paw oedema at 20 mg/kg, po dosed 30 mins before carrageenan challenge and measured 120 mins post carrageenan challenge; type: functional

SMILES | MIC (Staphylococcus [1]) | MIC (Staphylococcus aureus [2]) | MIC (Aeromonas hydrophila [3]) | MIC (Escherichia coli [4]) | inhibition in vivo at 50 mg/kg (Rattus norvegicus [5]) | inhibition in vivo at 50 mg/kg (Rattus norvegicus [6]) | inhibition in vivo at 50 mg/kg (Rattus norvegicus [7]) | Time (Rattus norvegicus [8]) | Time (Rattus norvegicus [9]) | Time (Rattus norvegicus [10]) | Time (Rattus norvegicus [11]) | Activity (Mus musculus [12]) | Activity (Mus musculus [13]) | LD50 at 48 h [14] | zone of inhibition at 1000 µg/mL (Staphylococcus [15]) | zone of inhibition at 1000 µg/mL (Staphylococcus aureus [16]) | zone of inhibition at 1000 µg/mL (Escherichia coli [18]) | zone of inhibition at 1000 µg/mL (Aeromonas hydrophila [17]) | further results
CN(C)[C@@H]1C(O)=C(C(N)=O)C(=O)[C@@]2(O)C(O)=C3C(=O)c4c(O)cccc4[C@@](C)(O)[C@H]3C[C@@H]12 [TETRACYCLINE] | 300 µg/mL (≈ 675 µM) | 300 µg/mL (≈ 675 µM) | 400 µg/mL (≈ 900 µM) | 400 µg/mL (≈ 900 µM) | – | – | – | – | – | – | – | – | – | – | – | – | – | – | –
Fc1ccc(C2=NN(c3ccccc3)C(c3cn(-c4ccccc4)nc3-c3ccc(Cl)c(Cl)c3)C2)cc1 (stereo not given) | 200 µg/mL (≈ 379 µM) | 300 µg/mL (≈ 569 µM) | – | – | 44.7% | 55.7% | 60.1% | 3.1 s | 4.6 s | 5.2 s | 4.8 s | Non-toxic | Non-toxic | 500 mg/kg | 37 mm | 31 mm | 21 mm | – | inhibition zone (IZ) (Aeromonas hydrophila [17]): inactive
CN[C@H](CC(C)C)C(=O)N[C@H]1C(=O)N[C@@H](CC(N)=O)C(=O)N[C@H]2C(=O)N[C@H]3C(=O)N[C@H](C(=O)N[C@H](C(=O)O)c4cc(O)cc(O)c4-c4cc3ccc4O)[C@H](O)c3ccc(c(Cl)c3)Oc3cc2cc(c3O[C@@H]2O[C@H](CO)[C@@H](O)[C@H](O)[C@H]2O[C@H]2C[C@](C)(N)[C@H](O)[C@H](C)O2)Oc2ccc(cc2Cl)[C@H]1O [VANCOMYCIN] | 500 µg/mL (≈ 345 µM) | 500 µg/mL (≈ 345 µM) | – | – | – | – | – | – | – | – | – | – | – | – | – | – | – | – | –
CC(C)=CCN1CC[C@]2(C)c3cc(O)ccc3C[C@H]1[C@H]2C [(+)-PENTAZOCINE] | – | – | – | – | – | – | – | – | – | – | – | – | – | – | – | – | – | – | Time (Rattus norvegicus [19]): 3.6 s; Time (Rattus norvegicus [20]): 7.4 s; Time (Rattus norvegicus [21]): 7.7 s; Time (Rattus norvegicus [22]): 7.9 s
CCC(=O)N1N=C(c2ccc(Cl)cc2)CC1c1cn(-c2ccccc2)nc1-c1ccc(Cl)c(Cl)c1 (stereo not given) | – | 300 µg/mL (≈ 573 µM) | – | – | 47.9% | 61.1% | 68.8% | 3.3 s | 6.1 s | 6.8 s | 5.4 s | Non-toxic | Non-toxic | 500 mg/kg | 18 mm | 30 mm | 19 mm | 23 mm | –
Clc1ccc(C2=NNC(c3cn(-c4ccccc4)nc3-c3ccc(Cl)c(Cl)c3)C2)cc1 (stereo not given) | – | – | – | 200 µg/mL (≈ 428 µM) | 33% | 45.8% | 48.4% | 3.6 s | 5.4 s | 5.7 s | 4.6 s | Non-toxic | Non-toxic | 500 mg/kg | 18 mm | 21 mm | 34 mm | 15 mm | –
Clc1ccc(C2=NN(c3ccccc3)C(c3cn(-c4ccccc4)nc3-c3ccc(Cl)c(Cl)c3)C2)cc1 (stereo not given) | – | – | 400 µg/mL (≈ 735 µM) | – | 45.7% | 53.4% | 61.7% | 4.3 s | 6.1 s | 6.1 s | 4.9 s | Non-toxic | Non-toxic | 500 mg/kg | 19 mm | 15 mm | – | 28 mm | inhibition zone (IZ) (Escherichia coli [18]): inactive
CO/N=C(\C(=O)N[C@@H]1C(=O)N2C(C(=O)O)=C(COC(N)=O)CS[C@H]12)c1ccco1 [CEFUROXIME] | 600 µg/mL (≈ 1410 µM) | – | 500 µg/mL (≈ 1180 µM) | 500 µg/mL (≈ 1180 µM) | – | – | – | – | – | – | – | – | – | – | – | – | – | – | –
O=C(O)Cc1ccccc1Nc1c(Cl)cccc1Cl [DICLOFENAC SODIUM] | – | – | – | – | – | – | – | – | – | – | – | – | – | – | – | – | – | – | inhibition in vivo at 20 mg/kg (Rattus norvegicus [23]): 46.8%; inhibition in vivo at 20 mg/kg (Rattus norvegicus [24]): 71%; inhibition in vivo at 20 mg/kg (Rattus norvegicus [25]): 76.6%
CCC(=O)N1N=C(c2ccc(F)cc2)CC1c1cn(-c2ccccc2)nc1-c1ccc(Cl)c(Cl)c1 (stereo not given) | – | – | 400 µg/mL (≈ 788 µM) | – | 51.1% | 63.4% | 75.6% | 3.4 s | 7.9 s | 7.7 s | 7.2 s | Non-toxic | Non-toxic | 500 mg/kg | 15 mm | 23 mm | 21 mm | 28 mm | –
CC1(C)S[C@@H]2[C@H](NC(=O)[C@H](N)c3ccccc3)C(=O)N2[C@H]1C(=O)O [AMPICILLIN] | 200 µg/mL (≈ 572 µM) | 300 µg/mL (≈ 859 µM) | 200 µg/mL (≈ 572 µM) | 100 µg/mL (≈ 286 µM) | – | – | – | – | – | – | – | – | – | – | – | – | – | – | –
Cc1ccc(C2=NN(c3ccccc3)C(c3cn(-c4ccccc4)nc3-c3ccc(Cl)c(Cl)c3)C2)cc1 (stereo not given) | – | – | – | – | 46.8% | 58.8% | 62.5% | 3.3 s | 6.7 s | 7.1 s | 6.6 s | Non-toxic | Non-toxic | 500 mg/kg | – | 15 mm | 20 mm | 18 mm | inhibition zone (IZ) (Staphylococcus [15]): inactive
